In patent US11833156B2, “Heterocyclic compounds as pad inhibitors” (JUBILANT EPIPAD LLC, priority 2017, dated 2023):
Counter-ions that a name gives are not always drawn.

Molecular target: PAD4 enzyme (Homo sapiens (Human), UniProt Q9UM07)
Test: Ammonia Release Biochemical Assay (citrullination detected via ammonia release)
Conditions: PAD4 120 nM, substrate BAEE, 60-min preincubation, read-out: NH3 release
Protocol: Ammonia Release Biochemical Assay
Citrullination assay was detected via ammonia release. PAD4 enzyme was diluted to 120 nM in assay buffer (100 mM HEPES, 50 mM NaCl, 2 mM DDT, 0.6 mg/mL BSA, pH 7.4) added to wells containing various concentration of compound or DMSO vehicle (1% final) in black 384 well plate. Following a 60-min preincubation at room temperature, the reaction was initiated by the addition of substrate (1.5 mM BAEE in 200 mM HEPES, 50 mM NaCl, 350 uM CaCl2, 2 mM, pH 7.4). The reaction was stopped after 60 min by addition of stop/detection buffer containing 50 mM EDTA, 2.6 mM of o-phthaladehyde and 2.6 mM DTT. Assay was incubated at room temperature for 90 min before measuring fluorescence's (λex 405/λem 460 nm) on Tecan reader. IC50 was calculated using XL-fit software model 205. (Ref: Nat Chem Biol. 2015 March; 11(3):189-91).

PAD4 enzyme, sequence (Q9UM07 whole entry): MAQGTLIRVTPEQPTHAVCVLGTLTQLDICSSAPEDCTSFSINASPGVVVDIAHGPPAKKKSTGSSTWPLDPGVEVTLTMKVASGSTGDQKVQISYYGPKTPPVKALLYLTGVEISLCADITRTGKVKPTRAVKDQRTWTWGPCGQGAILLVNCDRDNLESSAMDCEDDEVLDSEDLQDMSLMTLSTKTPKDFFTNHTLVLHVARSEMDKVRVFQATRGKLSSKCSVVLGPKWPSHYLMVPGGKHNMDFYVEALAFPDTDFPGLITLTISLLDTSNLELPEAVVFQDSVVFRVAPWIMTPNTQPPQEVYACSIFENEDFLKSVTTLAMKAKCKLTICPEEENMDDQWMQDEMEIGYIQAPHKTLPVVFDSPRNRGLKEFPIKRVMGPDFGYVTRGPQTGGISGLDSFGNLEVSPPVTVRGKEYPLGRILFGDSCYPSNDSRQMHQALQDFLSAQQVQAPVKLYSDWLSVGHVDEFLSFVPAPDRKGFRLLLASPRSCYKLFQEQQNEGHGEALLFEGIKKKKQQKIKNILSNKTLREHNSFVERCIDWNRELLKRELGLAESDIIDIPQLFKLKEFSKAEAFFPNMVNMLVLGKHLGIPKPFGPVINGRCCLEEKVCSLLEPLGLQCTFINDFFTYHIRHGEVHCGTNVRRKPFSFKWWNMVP

| IC50 | SMILES |
| --- | --- |
| 1000 to 10000 nM | N[C@@H]1CCN(C(=O)c2cc3c4c(c2)nc(-c2cc5ccccc5n2CC2CC2)n4CCO3)C1 [Example 2, (R)-(3-aminopyrrolidin-1-yl)(2-(1-(cyclopropylmethyl)-1H-indol-2-yl)-3,4-dihydro-5-oxa-1,2a-diazaacenaphthylen-7-yl)methanone] |
| 1000 to 10000 nM | CCn1c(-c2nc3cc(C(=O)N4CCC[C@@H](N)C4)cc4c3n2CCO4)cc2ccccc21 [Example 3, (R)-(3-aminopiperidin-1-yl)(2-(1-ethyl-1H-indol-2-yl)-3,4-dihydro-5-oxa-1,2a-diazaacenaphthylen-7-yl)methanone] |
| 1000 to 10000 nM | N[C@@H]1CCCN(C(=O)c2cc3c4c(c2)nc(-c2cc5ccccc5n2CC2CC2)n4CCCO3)C1 [Example 6, (R)-(3-aminopiperidin-1-yl)(1-(1-(cyclopropylmethyl)-1H-indol-2-yl)-8,9-dihydro-7H-6-oxa-2,9a-diazabenzo[cd]azulen-4-yl)methanone] |
| 1000 to 10000 nM | N[C@@H]1CCN(C(=O)c2cc3c4c(c2)nc(-c2cc5ccccc5n2CC2CC2)n4CCCO3)C1 [Example 7, (R)-(3-aminopyrrolidin-1-yl)(1-(1-(cyclopropylmethyl)-1H-indol-2-yl)-8,9-dihydro-7H-6-oxa-2,9a-diazabenzo[cd]azulen-4-yl)methanone] |
| ≤ 1000 nM | COCCn1c(-c2nc3cc(C(=O)N4CCC[C@@H](N)C4)cc4c3n2CCO4)cc2ccccc21 [Example 20, (R)-(3-aminopiperidin-1-yl)(2-(1-(2-methoxyethyl)-1H-indol-2-yl)-3,4-dihydro-5-oxa-1,2a-diazaacenaphthylen-7-yl)methanone] |
| ≤ 1000 nM | COCCn1c(-c2nc3cc(C(=O)N4CCC[C@@H](N)C4)cc4c3n2CCO4)cc2ccc(OC)cc21 [Example 21, (R)-(3-aminopiperidin-1-yl)(2-(6-methoxy-1-(2-methoxyethyl)-1H-indol-2-yl)-3,4-dihydro-5-oxa-1,2a-diazaacenaphthylen-7-yl)methanone] |
| ≤ 1000 nM | N[C@@H]1CCCN(C(=O)c2cc3c4c(c2)nc(-c2cc5ccccc5n2CCO)n4CCO3)C1 [Example 22, (R)-(3-aminopiperidin-1-yl)(2-(1-(2-hydroxyethyl)-1H-indol-2-yl)-3,4-dihydro-5-oxa-1,2a-diazaacenaphthylen-7-yl)methanone] |
| ≤ 1000 nM | COc1ccc2cc(-c3nc4cc(C(=O)N5CCC[C@@H](N)C5)cc5c4n3CCO5)n(CC3CC3)c2c1 [Example 23, (R)-(3-aminopiperidin-1-yl)(2-(1-(cyclopropylmethyl)-6-methoxy-1H-indol-2-yl)-3,4-dihydro-5-oxa-1,2a-diazaacenaphthylen-7-yl)methanone] |
| ≤ 1000 nM | N[C@@H]1CCCN(C(=O)c2cc3c4c(c2)nc(-c2cc5ccccc5n2Cc2ccncc2F)n4CCO3)C1 [Example 24, (R)-(3-aminopiperidin-1-yl)(2-(1-((3-fluoropyridin-4-yl)methyl)-1H-indol-2-yl)-3,4-dihydro-5-oxa-1,2a-diazaacenaphthylen-7-yl)methanone] |
| ≤ 1000 nM | N[C@@H]1CCCN(C(=O)c2cc3c4c(c2)nc(-c2cc5ccccc5n2Cc2cnccn2)n4CCO3)C1 [Example 25, (R)-(3-aminopiperidin-1-yl)(2-(1-(pyrazin-2-ylmethyl)-1H-indol-2-yl)-3,4-dihydro-5-oxa-1,2a-diazaacenaphthylen-7-yl)methanone] |
| ≤ 1000 nM | N[C@@H]1CCCN(C(=O)c2cc3c4c(c2)nc(-c2cc5ccccc5n2Cc2ncccc2F)n4CCO3)C1 [Example 26, (R)-(3-aminopiperidin-1-yl)(2-(1-((3-fluoropyridin-2-yl)methyl)-1H-indol-2-yl)-3,4-dihydro-5-oxa-1,2a-diazaacenaphthylen-7-yl)methanone] |
| ≤ 1000 nM | N[C@@H]1CCCN(C(=O)c2cc3c4c(c2)nc(-c2cc5ccccc5n2Cc2ncccn2)n4CCO3)C1 [Example 27, (R)-(3-aminopiperidin-1-yl)(2-(1-(pyrimidin-2-ylmethyl)-1H-indol-2-yl)-3,4-dihydro-5-oxa-1,2a-diazaacenaphthylen-7-yl)methanone] |
| ≤ 1000 nM | N[C@@H]1CCCN(C(=O)c2cc3c4c(c2)nc(-c2cc5ccc(F)cc5n2CC2CC2)n4CCO3)C1 [Example 28, (R)-(3-aminopiperidin-1-yl)(2-(1-(cyclopropylmethyl)-6-fluoro-1H-indol-2-yl)-3,4-dihydro-5-oxa-1,2a-diazaacenaphthylen-7-yl)methanone] |
| 1000 to 10000 nM | N[C@@H]1CCCN(C(=O)c2cc3c4c(c2)nc(-c2cc5ccccc5n2Cc2cncnc2)n4CCO3)C1 [Example 29, (R)-(3-aminopiperidin-1-yl)(2-(1-(pyrimidin-5-ylmethyl)-1H-indol-2-yl)-3,4-dihydro-5-oxa-1,2a-diazaacenaphthylen-7-yl)methanone] |
| 1000 to 10000 nM | N[C@@H]1CCCN(C(=O)c2cc3c4c(c2)nc(-c2cc5ccccc5n2Cc2cccnn2)n4CCO3)C1 [Example 30, (R)-(3-aminopiperidin-1-yl)(2-(1-(pyridazin-3-ylmethyl)-1H-indol-2-yl)-3,4-dihydro-5-oxa-1,2a-diazaacenaphthylen-7-yl)methanone] |
| ≤ 1000 nM | CC(C)Cn1c(-c2nc3cc(C(=O)N4CCC[C@@H](N)C4)cc4c3n2CCO4)cc2ccccc21 [Example 31, (R)-(3-aminopiperidin-1-yl)(2-(1-isobutyl-1H-indol-2-yl)-3,4-dihydro-5-oxa-1,2a-diazaacenaphthylen-7-yl)methanone] |
| ≤ 1000 nM | N[C@@H]1CCCN(C(=O)c2cc3c4c(c2)nc(-c2cc5cc(F)c(F)cc5n2CC2CC2)n4CCO3)C1 [Example 32, (R)-(3-aminopiperidin-1-yl)(2-(1-(cyclopropylmethyl)-5,6-difluoro-1H-indol-2-yl)-3,4-dihydro-5-oxa-1,2a-diazaacenaphthylen-7-yl)methanone] |
| ≤ 1000 nM | COc1ccc2cc(-c3nc4cc(C(=O)N5CCC[C@@H](N)C5)cc5c4n3CCO5)n(Cc3ncccc3F)c2c1 [Example 33, (R)-(3-aminopiperidin-1-yl)(2-(1-((3-fluoropyridin-2-yl)methyl)-6-methoxy-1H-indol-2-yl)-3,4-dihydro-5-oxa-1,2a-diazaacenaphthylen-7-yl)methanone] |
| ≤ 1000 nM | N[C@@H]1CCCN(C(=O)c2cc3c4c(c2)nc(-c2cc5cccc(Cl)c5n2Cc2ncccc2F)n4CCO3)C1 [Example 34, (R)-(3-aminopiperidin-1-yl)(2-(7-chloro-1-((3-fluoropyridin-2-yl)methyl)-1H-indol-2-yl)-3,4-dihydro-5-oxa-1,2a-diazaacenaphthylen-7-yl)methanone] |
| ≤ 1000 nM | N[C@@H]1CCCN(C(=O)c2cc3c4c(c2)nc(-c2cc5ccc(F)cc5n2Cc2ncccc2F)n4CCO3)C1 [Example 35, (R)-(3-aminopiperidin-1-yl)(2-(6-fluoro-1-((3-fluoropyridin-2-yl)methyl)-1H-indol-2-yl)-3,4-dihydro-5-oxa-1,2a-diazaacenaphthylen-7-yl)methanone] |
| ≤ 1000 nM | COCCn1c(-c2nc3cc(C(=O)N4CCC[C@@H](N)C4)cc4c3n2CCO4)cc2cccc(Cl)c21 [Example 36, (R)-(3-aminopiperidin-1-yl)(2-(7-chloro-1-(2-methoxyethyl)-1H-indol-2-yl)-3,4-dihydro-5-oxa-1,2a-diazaacenaphthylen-7-yl)methanone] |
| ≤ 1000 nM | N[C@@H]1CCCN(C(=O)c2cc3c4c(c2)nc(-c2cc5ccccc5n2Cc2ccc(CO)cc2)n4CCO3)C1 [Example 37, (R)-(3-aminopiperidin-1-yl)(2-(1-(4-(hydroxymethyl)benzyl)-1H-indol-2-yl)-3,4-dihydro-5-oxa-1,2a-diazaacenaphthylen-7-yl)methanone trifluoroacetic acid salt] |
| ≥ 10000 nM | CN(C)C/C=C/C(=O)N[C@@H]1CCCN(C(=O)c2cc3c4c(c2)nc(-c2cc5ccccc5n2CC2CC2)n4CCO3)C1 [Example 38, (R,E)-N-(1-(2-(1-(cyclopropylmethyl)-1H-indol-2-yl)-3,4-dihydro-5-oxa-1,2a-diazaacenaphthylene-7-carbonyl)piperidin-3-yl)-4-(dimethylamino)but-2-enamide trifluoroacetic acid salt] |
| 1000 to 10000 nM | N[C@@H]1CCCN(C(=O)c2cc3c4c(c2)nc(-c2cc5ccccc5n2CC2CCOCC2)n4CCO3)C1 [Example 40, (R)-(3-aminopiperidin-1-yl)(2-(1-((tetrahydro-2H-pyran-4-yl)methyl)-1H-indol-2-yl)-3,4-dihydro-5-oxa-1,2a-diazaacenaphthylen-7-yl)methanone] |
| ≥ 10000 nM | N[C@@H]1CCCN(C(=O)c2cc3c4c(c2)nc(-c2cc5ccccc5n2CC(=O)O)n4CCO3)C1 [Example 42, (R)-2-(2-(7-(3-aminopiperidine-1-carbonyl)-3,4-dihydro-5-ox 1,2a-diazaacenaphthylen-2-yl)-1H-indol-1-yl)acetic acid] |
| ≥ 10000 nM | N[C@@H]1CCCN(C(=O)c2cc3c4c(c2)nc(-c2cc5ccccc5n2CC2CCNCC2)n4CCO3)C1 [Example 43, (R)-(3-aminopiperidin-1-yl)(2-(1-(piperidin-4-ylmethyl)-1H-indol-2-yl)-3,4-dihydro-5-oxa-1,2a-diazaacenaphthylen-7-yl)methanone] |
| 1000 to 10000 nM | N[C@@H]1CCCN(C(=O)c2cc3c4c(c2)nc(-c2cc5ccccc5n2CC2COC2)n4CCO3)C1 [Example 44, (R)-(3-aminopiperidin-1-yl)(2-(1-(oxetan-3-ylmethyl)-1H-indol-2-yl)-3,4-dihydro-5-oxa-1,2a-diazaacenaphthylen-7-yl)methanone] |
